Assay results taken from the CheMixHub viscosity set.

Assay: xn = mol fraction of the nth substance listed

CCNc1ccccc1 + CCC(=O)O
308.15 K, 101.33 kPa
Conditions | viscosity [mPa·s]
x2 = 0.1567 | 1.706
x2 = 0.2906 | 1.897
x2 = 0.4142 | 2.167
x2 = 0.5224 | 2.302
x2 = 0.6217 | 2.533
x2 = 0.7121 | 2.575
x2 = 0.7933 | 2.379
x2 = 0.8787 | 1.916
x2 = 0.9032 | 1.691
x2 = 0.9363 | 1.412
x2 = 0.9694 | 1.113

CCNc1ccccc1 + CCC(=O)c1ccccc1
303.15 K, 100 kPa
Conditions | viscosity [mPa·s]
x1 = 0.0789 | 1.524
x1 = 0.1541 | 1.537
x1 = 0.2249 | 1.55
x1 = 0.3002 | 1.565
x1 = 0.3862 | 1.581
x1 = 0.4651 | 1.598
x1 = 0.5244 | 1.612
x1 = 0.6049 | 1.631
x1 = 0.6891 | 1.653
x1 = 0.7354 | 1.666
x1 = 0.8005 | 1.683
x1 = 0.8523 | 1.699
x1 = 0.9099 | 1.716

CC(=O)O + CCC(C)=O
viscosity [mPa·s], 101 kPa
Conditions | x1 = 0.1006 | x1 = 0.2003 | x1 = 0.3011 | x1 = 0.4019 | x1 = 0.5031 | x1 = 0.6006 | x1 = 0.7023 | x1 = 0.7985 | x1 = 0.8986
298.15 K | 0.4312 | 0.4737 | 0.5266 | 0.5832 | 0.6507 | 0.7259 | 0.8152 | 0.9085 | 1.013
308.15 K | 0.3905 | 0.4255 | 0.4697 | 0.5173 | 0.573 | 0.6346 | 0.7132 | 0.7902 | 0.879
318.15 K | 0.3521 | 0.3832 | 0.4196 | 0.4601 | 0.5058 | 0.559 | 0.6203 | 0.6845 | 0.7622

CCC(C)Br (stereo not drawn) + CCC(C)O
viscosity [mPa·s], 101.3 kPa
Conditions | x1 = 0.0514 | x1 = 0.1041 | x1 = 0.2027 | x1 = 0.2985 | x1 = 0.4321 | x1 = 0.5027 | x1 = 0.5839 | x1 = 0.702 | x1 = 0.8019 | x1 = 0.9029
298.15 K | 2.434 | 1.986 | 1.435 | 1.135 | 0.8991 | 0.8084 | 0.7285 | 0.6459 | 0.5996 | 0.5667
313.15 K | 1.495 | 1.276 | 1.006 | 0.8366 | 0.6849 | 0.6292 | 0.5794 | 0.5282 | 0.4961 | 0.4774

CCNc1ccccc1 + CCC(C)O
viscosity [mPa·s], 101 kPa
Conditions | 303.15 K | 308.15 K
x1 = 0.0785 | 2.682 | 2.105
x1 = 0.1325 | 2.642 | 2.089
x1 = 0.1965 | 2.596 | 2.071
x1 = 0.2564 | 2.55 | 2.052
x1 = 0.3214 | 2.498 | 2.028
x1 = 0.3965 | 2.433 | 1.995
x1 = 0.4562 | 2.378 | 1.964
x1 = 0.5124 | 2.322 | 1.932
x1 = 0.5895 | 2.24 | 1.882
x1 = 0.6547 | 2.164 | 1.835
x1 = 0.7325 | 2.07 | 1.773
x1 = 0.8025 | 1.983 | 1.714
x1 = 0.8745 | 1.894 | 1.653

CCOC=O + CCC(C)O
viscosity [mPa·s], 100 kPa
Conditions | x1 = 0.0818 | x1 = 0.1617 | x1 = 0.2415 | x1 = 0.3497 | x1 = 0.4398 | x1 = 0.5611 | x1 = 0.65 | x1 = 0.7399 | x1 = 0.85 | x1 = 0.9396
293.15 K | 2.41 | 1.74 | 1.35 | 1.04 | 0.86 | 0.69 | 0.59 | 0.53 | 0.48 | 0.44
298.15 K | 2.03 | 1.51 | 1.2 | 0.94 | 0.78 | 0.62 | 0.55 | 0.5 | 0.45 | 0.42
303.15 K | 1.74 | 1.32 | 1.07 | 0.84 | 0.71 | 0.58 | 0.51 | 0.47 | 0.43 | 0.4
308.15 K | 1.5 | 1.17 | 0.96 | 0.77 | 0.66 | 0.55 | 0.49 | 0.45 | 0.41 | 0.38
313.15 K | 1.3 | 1.02 | 0.85 | 0.71 | 0.61 | 0.51 | 0.46 | 0.42 | 0.39 | 0.36
318.15 K | 1.13 | 0.9 | 0.77 | 0.65 | 0.57 | 0.48 | 0.43 | 0.39 | 0.36 | 0.34
323.15 K | 1 | 0.82 | 0.72 | 0.61 | 0.55 | 0.47 | 0.42 | 0.38 | 0.35 | 0.32

CCOC=O + CCCC(C)O
viscosity [mPa·s], 100 kPa
Conditions | x1 = 0.0826 | x1 = 0.1603 | x1 = 0.2396 | x1 = 0.3504 | x1 = 0.4402 | x1 = 0.5595 | x1 = 0.6497 | x1 = 0.74 | x1 = 0.8501 | x1 = 0.9381
293.15 K | 2.84 | 2.16 | 1.73 | 1.34 | 1.12 | 0.91 | 0.78 | 0.65 | 0.52 | 0.45
298.15 K | 2.5 | 1.96 | 1.57 | 1.23 | 1.02 | 0.85 | 0.73 | 0.6 | 0.49 | 0.43
303.15 K | 2.2 | 1.74 | 1.4 | 1.11 | 0.93 | 0.77 | 0.67 | 0.57 | 0.46 | 0.41
308.15 K | 1.9 | 1.53 | 1.23 | 0.98 | 0.84 | 0.7 | 0.6 | 0.52 | 0.43 | 0.39
313.15 K | 1.6 | 1.3 | 1.05 | 0.86 | 0.75 | 0.63 | 0.54 | 0.46 | 0.4 | 0.36
318.15 K | 1.32 | 1.06 | 0.89 | 0.73 | 0.64 | 0.54 | 0.47 | 0.41 | 0.36 | 0.33
323.15 K | 1.06 | 0.84 | 0.7 | 0.59 | 0.53 | 0.45 | 0.4 | 0.36 | 0.33 | 0.31

ClCCl + CCCCC
298.15 K, 101 kPa
Conditions | viscosity [mPa·s]
x2 = 0.05 | 0.403
x2 = 0.1 | 0.384
x2 = 0.1023 | 0.379
x2 = 0.15 | 0.366
x2 = 0.1992 | 0.345
x2 = 0.2 | 0.348
x2 = 0.25 | 0.332
x2 = 0.3 | 0.317
x2 = 0.3043 | 0.314
x2 = 0.35 | 0.303
x2 = 0.4 | 0.29
x2 = 0.4032 | 0.29
x2 = 0.45 | 0.28
x2 = 0.5 | 0.27
x2 = 0.5097 | 0.269
x2 = 0.55 | 0.262
x2 = 0.6 | 0.255
x2 = 0.603 | 0.254
x2 = 0.65 | 0.248
x2 = 0.6984 | 0.242
x2 = 0.7 | 0.242
x2 = 0.75 | 0.237
x2 = 0.7991 | 0.231
x2 = 0.8 | 0.232
x2 = 0.85 | 0.227
x2 = 0.8858 | 0.224
x2 = 0.9 | 0.222
x2 = 0.9189 | 0.221
x2 = 0.95 | 0.218

ClCCl + CCCCCC
298 K, 101 kPa
Conditions | viscosity [mPa·s]
x2 = 0.1331 | 0.386
x2 = 0.2381 | 0.367
x2 = 0.3208 | 0.354
x2 = 0.3873 | 0.346
x2 = 0.4407 | 0.34
x2 = 0.4419 | 0.34
x2 = 0.4746 | 0.335
x2 = 0.4862 | 0.335
x2 = 0.5144 | 0.333
x2 = 0.5244 | 0.332
x2 = 0.5599 | 0.329
x2 = 0.6138 | 0.324
x2 = 0.6791 | 0.32
x2 = 0.7601 | 0.314
x2 = 0.8633 | 0.308

C[Si]1(C)O[Si](C)(C)O[Si](C)(C)O[Si](C)(C)O1 + CCCCCCCCCC
viscosity [mPa·s], 103 kPa
Conditions | 298.15 K | 308.15 K | 318.15 K
x1 = 0.05 | 0.844 | 0.733 | 0.645
x1 = 0.1 | 0.867 | 0.753 | 0.664
x1 = 0.1501 | 0.899 | 0.778 | 0.683
x1 = 0.2 | 0.931 | 0.801 | 0.703
x1 = 0.25 | 0.965 | 0.831 | 0.725
x1 = 0.3 | 1.007 | 0.865 | 0.753
x1 = 0.35 | 1.047 | 0.895 | 0.778
x1 = 0.3999 | 1.086 | 0.93 | 0.802
x1 = 0.45 | 1.134 | 0.964 | 0.833
x1 = 0.5 | 1.183 | 1.006 | 0.867
x1 = 0.5501 | 1.232 | 1.048 | 0.909
x1 = 0.6 | 1.292 | 1.097 | 0.943
x1 = 0.65 | 1.358 | 1.15 | 0.987
x1 = 0.6999 | 1.431 | 1.209 | 1.035
x1 = 0.75 | 1.511 | 1.273 | 1.087
x1 = 0.8 | 1.6 | 1.345 | 1.145
x1 = 0.85 | 1.699 | 1.423 | 1.208
x1 = 0.9 | 1.811 | 1.511 | 1.278
x1 = 0.95 | 1.936 | 1.61 | 1.356
